Laboratory results taken from publication PMC8536575, “Acute effects of the imidacloprid metabolite desnitro-imidacloprid on human nACh receptors relevant for neuronal signaling” (Archives of Toxicology, 2021).

Assays:
human α3β4 nAChR = target: T1, human α3β4 nAChR (Homo sapiens, UniProt P30926+P32297); assay: Two-electrode voltage-clamp recordings, Xenopus laevis oocytes expressing human α3β4 nAChR; assay type: cell-based
T1 construct: expressed in transfected cells; host or cells: Xenopus laevis oocytes, mRNA injection, 0.33 ng α3 and 3.33 ng β4

[1] = Clearance study in a hepatocyte co-culture system; conditions: human, hepatocytes
Source text: Renal clearance for DN-IMI was assumed to be governed only by passive processes, with both filtration and passive reabsorption being accounted for. Passive permeability was scaled from the predicted permeability in the intestine (Peff 0.37 10-4 cm/s) accounting for the surface area of the proximal tubules in the kidney.

human α4β2 (LS) nAChR = target: T2, human α4β2 (LS) nAChR (Homo sapiens, UniProt P17787+P43681); assay: Two-electrode voltage-clamp recordings, Xenopus laevis oocytes expressing human α4β2 (LS) nAChR; assay type: cell-based
T2 construct: expressed in transfected cells; host or cells: Xenopus laevis oocytes, mRNA injection, 10 ng α4 and 1 ng β2
Source text: (§1) The human α7 nAChR subunit was cloned in the pCDNA3.1 vector.
(§2) For the generation of the mRNA for injection, the plasmid DNAs of α3, α4, β2, and β4 were linearized with the NotI restriction endonuclease (New England Biolabs) and the plasmid DNA of α7 was linearized with the XbaI restriction endonuclease (New England Biolabs). The mRNAs of α3, α4, β2, and β4 were generated by in vitro transcription using the mMESSAGE mMACHINE SP6 Transcription Kit (Invitrogen). For the generation of α7 mRNA, the mMESSAGE mMACHINE T7 Transcription Kit (Invitrogen) was used. For the separation of the DNA and mRNA, a phenol–chloroform extraction (Chomczynski and Sacchi [2006]) was performed. The mRNA was then obtained by ethanol precipitation from the aqueous phase; for quantification, the BioPhotometer (Eppendorf) was used.
(§3) The recordings of human α7, α3β4, α4β2, and α4β4 nAChRs expressed in Xenopus laevis oocytes (EcoCyte Bioscience) were performed in two-electrode voltage-clamp mode using the Roboocyte2 system and the corresponding software (version 1.4.1; Multi Channel Systems MCS). Prior to the recordings, the oocytes were maintained at 19 °C in modified Barth’s solution containing [mM]: 88 NaCl, 1 KCl, 0.33 Ca(NO3)2, 0.82 MgSO4, 2.4 NaHCO3, 0.41 CaCl2, 5 Tris, 100 U/ml penicillin, 100 µg/ml streptomycin, pH 7.4.
(§4) To express human α7 nAChR, we injected 50 nl of mRNA solution (30 ng mRNA) per oocyte, using the Roboinject and the corresponding software (version 1.2.1; Multi Channel Systems MCS). […]
(§5) The baseline correction of voltage-clamp oocyte recordings was performed with the Roboocyte2 + software (version 1.4.3; Multi Channel Systems MCS, Germany). The maximal current influx and further analysis were executed in scripts written in R. In the antagonist experiments with oocytes, the maximal inward current was determined for the last response of each period (control, three antagonist concentrations, and washout).

[2] = Blood/plasma ratio and free fraction (PBTK input parameters); assay type: in vitro ADME
human α4β4 nAChR = target: T3, human α4β4 nAChR (Homo sapiens, UniProt P30926+P43681); assay: Two-electrode voltage-clamp recordings, Xenopus laevis oocytes expressing human α4β4 nAChR; assay type: cell-based
T3 construct: expressed in transfected cells; host or cells: Xenopus laevis oocytes, mRNA injection, 3.33 ng α4 and 3.33 ng β4
Source text: as §1, §2, §3, §4, §5

mice = conditions: ref Chao and Casida [1997], Tomizawa et al. [2000], [2001]; cited from earlier work
[3] = normalized to nicotine (100 µM)
[4] = read-out: relative pEC50 (inward current amplitude) (converted)

T1 sequence (P32297 32-505): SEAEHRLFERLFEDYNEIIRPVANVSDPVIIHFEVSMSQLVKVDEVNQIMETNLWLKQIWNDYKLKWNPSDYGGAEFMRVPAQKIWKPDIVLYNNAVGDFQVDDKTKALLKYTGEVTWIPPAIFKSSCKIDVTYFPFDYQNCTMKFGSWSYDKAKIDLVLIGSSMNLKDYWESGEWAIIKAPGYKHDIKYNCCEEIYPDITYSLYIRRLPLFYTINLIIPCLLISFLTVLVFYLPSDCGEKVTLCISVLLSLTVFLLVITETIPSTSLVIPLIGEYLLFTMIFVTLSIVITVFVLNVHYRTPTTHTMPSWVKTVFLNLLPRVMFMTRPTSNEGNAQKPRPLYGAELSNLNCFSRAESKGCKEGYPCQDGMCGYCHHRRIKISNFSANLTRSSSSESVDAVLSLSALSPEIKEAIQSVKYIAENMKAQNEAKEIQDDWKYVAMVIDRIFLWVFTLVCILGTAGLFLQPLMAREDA
T1 sequence (P30926 22-498): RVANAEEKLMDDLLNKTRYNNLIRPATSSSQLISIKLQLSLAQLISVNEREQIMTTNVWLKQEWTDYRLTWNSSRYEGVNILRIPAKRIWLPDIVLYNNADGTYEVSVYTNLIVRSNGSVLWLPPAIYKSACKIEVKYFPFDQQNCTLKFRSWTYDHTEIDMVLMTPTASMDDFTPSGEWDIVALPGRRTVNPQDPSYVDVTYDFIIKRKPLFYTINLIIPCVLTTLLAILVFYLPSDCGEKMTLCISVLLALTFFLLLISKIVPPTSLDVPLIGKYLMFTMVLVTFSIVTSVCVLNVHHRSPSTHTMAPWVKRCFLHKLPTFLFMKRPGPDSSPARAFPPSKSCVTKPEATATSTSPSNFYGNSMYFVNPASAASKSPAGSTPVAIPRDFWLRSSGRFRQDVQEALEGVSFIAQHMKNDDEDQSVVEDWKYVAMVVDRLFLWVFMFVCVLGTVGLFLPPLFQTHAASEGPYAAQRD
T3 sequence (P43681 27-627): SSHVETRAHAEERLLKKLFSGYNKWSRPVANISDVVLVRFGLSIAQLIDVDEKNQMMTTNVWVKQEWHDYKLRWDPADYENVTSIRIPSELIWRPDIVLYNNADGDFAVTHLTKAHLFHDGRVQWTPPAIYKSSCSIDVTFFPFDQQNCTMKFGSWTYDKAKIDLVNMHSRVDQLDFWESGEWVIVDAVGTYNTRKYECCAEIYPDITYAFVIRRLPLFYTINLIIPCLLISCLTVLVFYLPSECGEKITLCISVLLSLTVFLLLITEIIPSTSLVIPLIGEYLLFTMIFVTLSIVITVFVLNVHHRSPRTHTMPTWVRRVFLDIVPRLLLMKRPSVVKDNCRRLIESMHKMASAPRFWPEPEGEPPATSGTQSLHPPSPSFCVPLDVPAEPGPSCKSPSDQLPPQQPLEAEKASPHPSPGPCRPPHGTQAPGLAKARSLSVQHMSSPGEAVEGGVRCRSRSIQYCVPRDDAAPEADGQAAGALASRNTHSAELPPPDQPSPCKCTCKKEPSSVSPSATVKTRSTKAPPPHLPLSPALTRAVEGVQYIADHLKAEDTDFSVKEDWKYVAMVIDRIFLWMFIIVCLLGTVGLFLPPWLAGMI
T3 sequence (P30926 22-498): as the sequence (P30926 22-498) above
T2 sequence (P43681 27-627): as the sequence (P43681 27-627) above
T2 sequence (P17787 26-502): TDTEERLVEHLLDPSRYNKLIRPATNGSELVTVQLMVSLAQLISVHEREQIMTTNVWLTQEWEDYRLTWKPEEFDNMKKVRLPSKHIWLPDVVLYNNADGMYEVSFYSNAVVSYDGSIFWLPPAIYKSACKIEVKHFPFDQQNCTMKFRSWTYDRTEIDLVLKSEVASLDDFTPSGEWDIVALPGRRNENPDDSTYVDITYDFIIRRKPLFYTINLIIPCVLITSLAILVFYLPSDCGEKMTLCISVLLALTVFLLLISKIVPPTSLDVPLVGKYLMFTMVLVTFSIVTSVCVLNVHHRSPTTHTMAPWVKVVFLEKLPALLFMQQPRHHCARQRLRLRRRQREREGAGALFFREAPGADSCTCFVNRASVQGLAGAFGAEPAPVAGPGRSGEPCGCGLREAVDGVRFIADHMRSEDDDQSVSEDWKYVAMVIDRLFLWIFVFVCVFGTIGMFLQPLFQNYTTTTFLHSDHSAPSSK

## NC1=NCCN1Cc1ccc(Cl)nc1 [DN-IMI, desnitro-imidacloprid]
Human α3β4 nAChR
  EC50: 12.6 µM
Human α3β4 nAChR; from curve-fitted concentration–response data
  absolute EC25: 5.2 µM
Human α3β4 nAChR; normalized to nicotine (1 mM)
  estimated maximum: ~ 0.65
[1]
  hepatocyte CLint: < 143 µL/min/1e6 cells
Human α4β2 (LS) nAChR; [3]
  estimated maximum: ~ 1.22
Human α4β2 (LS) nAChR; [4]
  EC50: 5.01 µM
[2]; blood and plasma, read-out: Blood/plasma ration [B/P]
  blood plasma ratio: 0.759
[2]; plasma, read-out: Free fraction [fu]
  fraction unbound: 0.841
Human α4β4 nAChR; [3]
  estimated maximum: ~ 0.97
Human α4β4 nAChR; [4]
  EC50: 3.16 µM
mice
  LD50: 6 to 24 mg/kg
